pEC50: −log10 of the molar value.
Biological target: ATP-dependent translocase ABCB1 (Homo sapiens, UniProt P08183)
Sequence (P08183 whole entry): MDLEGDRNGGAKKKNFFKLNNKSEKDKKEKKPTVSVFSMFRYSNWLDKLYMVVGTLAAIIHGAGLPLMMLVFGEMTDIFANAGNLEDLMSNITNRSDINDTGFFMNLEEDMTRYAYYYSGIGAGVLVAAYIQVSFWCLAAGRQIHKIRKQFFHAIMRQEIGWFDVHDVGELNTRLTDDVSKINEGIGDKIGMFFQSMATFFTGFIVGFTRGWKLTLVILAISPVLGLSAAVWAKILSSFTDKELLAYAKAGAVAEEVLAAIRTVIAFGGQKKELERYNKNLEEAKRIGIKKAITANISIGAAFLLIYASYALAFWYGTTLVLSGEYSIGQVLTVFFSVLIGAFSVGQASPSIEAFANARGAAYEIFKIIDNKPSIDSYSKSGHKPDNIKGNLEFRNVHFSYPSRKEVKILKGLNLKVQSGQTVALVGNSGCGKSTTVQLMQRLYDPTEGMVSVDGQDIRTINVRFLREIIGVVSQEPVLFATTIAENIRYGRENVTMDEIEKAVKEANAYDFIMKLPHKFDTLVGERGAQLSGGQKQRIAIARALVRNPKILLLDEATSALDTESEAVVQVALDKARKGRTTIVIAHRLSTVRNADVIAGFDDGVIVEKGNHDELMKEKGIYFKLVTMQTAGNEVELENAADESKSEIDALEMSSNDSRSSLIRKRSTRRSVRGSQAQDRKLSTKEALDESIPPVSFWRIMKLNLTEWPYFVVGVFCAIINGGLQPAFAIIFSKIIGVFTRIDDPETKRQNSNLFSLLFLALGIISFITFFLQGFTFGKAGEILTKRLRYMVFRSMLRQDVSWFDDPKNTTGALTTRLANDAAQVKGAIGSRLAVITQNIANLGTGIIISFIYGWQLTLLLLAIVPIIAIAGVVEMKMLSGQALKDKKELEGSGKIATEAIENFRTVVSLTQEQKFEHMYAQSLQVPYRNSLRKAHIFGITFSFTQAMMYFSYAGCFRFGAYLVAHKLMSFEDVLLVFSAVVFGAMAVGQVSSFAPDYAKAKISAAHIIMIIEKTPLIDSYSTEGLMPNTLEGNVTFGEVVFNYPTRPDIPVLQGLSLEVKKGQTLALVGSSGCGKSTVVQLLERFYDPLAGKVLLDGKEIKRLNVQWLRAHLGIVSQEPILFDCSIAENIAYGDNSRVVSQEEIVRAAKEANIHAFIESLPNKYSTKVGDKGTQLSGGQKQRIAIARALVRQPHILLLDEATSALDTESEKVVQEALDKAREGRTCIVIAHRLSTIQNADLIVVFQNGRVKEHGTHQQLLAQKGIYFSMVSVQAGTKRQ

pEC50 | SMILES
7.15 | Cc1ccccc1N1CCN(CC(O)COc2cccc(C(=O)CCc3cccc4ccccc34)c2)CC1 (stereo not drawn)
6.64 | Cc1cccc(N2CCN(C[C@@H](O)COc3ccc(C(=O)CCc4ccccc4)cc3)CC2)c1C
6.45 | CC(=O)c1ccccc1OC[C@H](O)CN1CCC(Cc2ccccc2)CC1
5.78 | CCC(=O)N(Cc1ccccc1)C[C@@H](O)COc1ccccc1C(=O)CCc1ccccc1
5.74 | CO[C@H](CCc1ccccc1)c1ccccc1OC[C@H](O)CN1CCOCC1
5.02 | CC(=O)c1cc(C)ccc1OC[C@H](O)CN1CCN(C[C@H](O)COc2ccccc2C(=O)c2ccccc2)CC1
7.42 | Cc1ccccc1N1CCN(C[C@@H](O)COc2ccccc2C(=O)CCc2ccc(Cl)c(Cl)c2)CC1
6.26 | O=C(CCc1cccc2ccccc12)c1ccc(OC[C@H](O)CN2CCN(c3ccc(F)cc3)CC2)cc1
6.34 | CC(C)O[C@H](CCc1ccccc1)c1ccccc1OC[C@H](O)CN1CCCCC1
6.39 | Cc1ccccc1N1CCN(C[C@@H](O)COc2ccc(C(=O)CCc3cccc4ccccc34)cc2)CC1
7.74 | Cc1ccc(CCC(=O)c2ccccc2OC[C@H](O)CN2CCN(c3ccccc3C)CC2)cc1
6.61 | Cc1ccc(OC[C@H](O)CN2CCN(c3ccc(F)cc3)CC2)c(C(=O)CCc2ccccc2)c1
7.40 | COc1ccc(C(=O)CCc2ccc(N(C)C)cc2)c(OC[C@H](O)CN2CCN(c3ccccc3C)CC2)c1
6.76 | O=C(CCc1ccccc1)c1cc(OCc2ccccc2)ccc1OC[C@H](O)CN1CCCCC1
6.22 | O=C(CCc1ccccc1)c1ccccc1OC[C@H](O)CN1CCCCC1
6.24 | O=C(c1ccccc1)c1cccc(OC[C@H](O)CN2CCN(c3ccc(F)cc3)CC2)c1
6.73 | O[C@@H](COc1ccccc1[C@@H](O)CCc1ccccc1)CN1CCN(Cc2ccccc2)CC1
5.81 | COC(=O)c1ccc(NC[C@@H](O)COc2ccccc2C(=O)CCc2ccccc2)cc1
6.53 | CC(C)(C)[C@@H](NC[C@@H](O)COc1ccccc1C(=O)CCc1ccccc1)c1ccccc1
6.14 | O=C(CCc1cccc2ccccc12)c1ccccc1OC[C@H](O)CN1CCOCC1
5.19 | O=C(CCc1ccccc1)c1ccccc1OC[C@H](O)CNc1ccccc1
7.12 | O=C(CCc1cccc2ccccc12)c1ccccc1OC[C@H](O)CN1CCC(O)(c2ccccc2)CC1

pEC50 | SMILES
7.35 | Cc1ccccc1N1CCN(C[C@@H](O)COc2ccccc2[C@@H](O)CCc2ccccc2)CC1
6.94 | O=C(CCc1ccccc1)c1cc(OCc2ccccc2)ccc1OC[C@H](O)CN1CCN(Cc2ccccc2)CC1
5.02 | O[C@@H](COc1ccccc1[C@H](O)CCc1ccccc1)CN1CCOCC1
5.84 | CCC(=O)c1ccccc1OC[C@H](O)CN1CCN(Cc2ccccc2)CC1
6.06 | O[C@@H](COc1ccccc1[C@@H](O)CCc1ccccc1)CN1CCCCC1
7.07 | O=C(CCc1ccccc1)c1cc(OCc2ccccc2)ccc1OC[C@H](O)CN1CCC(O)(c2ccccc2)CC1
5.07 | O=C(CCc1ccccc1)c1ccccc1OC[C@H](O)CNc1ccc(C(F)(F)F)cc1
6.42 | CC(C)N(C[C@@H](O)COc1ccccc1C(=O)CCc1ccccc1)C(C)C
7.85 | COc1ccc(CCC(=O)c2ccccc2OC[C@H](O)CN2CCN(c3ccccc3C)CC2)cc1
6.42 | Cc1ccc(NC(=S)N2CCN(C[C@@H](O)COc3ccccc3C(=O)c3ccccc3)CC2)cc1
6.38 | CCCN(C)C[C@@H](O)COc1ccccc1C(=O)CCc1ccccc1
7.51 | COc1ccc(C(=O)CCc2ccccc2)c(OC[C@H](O)CN2CCN(c3ccccc3C)CC2)c1
6.01 | O=C(CCc1ccccc1)c1ccc(OC[C@H](O)CN2CCCCC2)cc1
6.94 | CC(C)N(C[C@@H](O)COc1ccc(C(=O)CCc2cccc3ccccc23)cc1)C(C)C
5.77 | O[C@H](COc1ccccc1[C@@H](O)CCc1ccccc1)CN1CCCCC1
6.84 | O=C(CCc1cccc2ccccc12)c1cccc(OC[C@H](O)CN2CCCCC2)c1
6.07 | O[C@@H](COc1ccccc1[C@H](O)CCc1ccccc1)CN1CCCCC1
6.17 | COc1cccc(N2CCN(C[C@@H](O)COc3ccccc3C(=O)CCc3ccccc3)CC2)c1
7.77 | Cc1ccccc1N1CCN(C[C@@H](O)COc2cc(Cl)c(Cl)cc2C(=O)CCc2ccccc2)CC1
4.94 | O=C(c1ccccc1)c1cccc(OC[C@H](O)CN2CCOCC2)c1
5.44 | O=C(CCc1ccccc1)c1ccccc1OC[C@H](O)CN1CCOCC1
6.84 | O=C(CCc1ccccc1)c1ccccc1OC[C@H](O)CN[C@@H](c1ccccc1)C1CCCCC1

Further lines, the compound ahead of its results:

SMILES | pEC50
C[C@H]1C(=O)O[C@@H]2[C@H](c3cc(C#N)ccc3OC2(C)C)N1C | 4.54
CC(C)[C@H](N[C@H]1c2cc(C#N)ccc2OC(C)(C)[C@@H]1O)C(=O)O | 5.57
C[C@H](N[C@H]1c2cc(C#N)ccc2OC(C)(C)[C@@H]1O)C(=O)OC(C)(C)C | 4.84
Cc1ccc(C(=O)O[C@@H]2[C@H](N3CCCC3)c3ccccc3N[C@@H]2C)cc1 | 5.33
OC(CN1CCCCC1)C1Oc2ccccc2C1CCc1ccccc1 (stereo not drawn) | 6.19
CC(C)N(C[C@@H](O)COc1ccc(OCc2ccccc2)cc1C(=O)CCc1ccccc1)C(C)C | 7.09
CC(C)(C)OC(=O)C(Cc1ccccc1)N[C@H]1c2cc(C#N)ccc2OC(C)(C)[C@@H]1O (stereo partly drawn) | 6.11
CC1(C)Oc2ccc(C#N)cc2[C@H](N2CCN(Cc3ccccc3)CC2)[C@H]1O | 6.07
Cc1c(C(=O)c2ccccc2)c(=O)n(-c2ccccc2)n1C[C@H](O)CNC(C)(C)C | 4.09
CCN(CC)CCC[C@H](C)N[C@@H]1c2ccccc2N[C@H](C)[C@@H]1OC(=O)c1ccc(C)cc1 | 6.48
CCCNC[C@@H](O)Cn1c(C)c(C(=O)CCc2ccccc2)c(=O)n1-c1ccccc1 | 5.20
CC(=O)c1cc(C)ccc1OC[C@H](O)CN(C(C)C)C(C)C | 5.21
C[C@H](N[C@@H]1c2cc(C#N)ccc2OC(C)(C)[C@H]1O)C(=O)OC(C)(C)C | 4.34
CC(C)[C@@H](CCl)N(C)[C@@H]1c2cc(C#N)ccc2OC(C)(C)[C@H]1O | 4.45
O=C1C[C@H](CN2CCN(Cc3ccccc3)CC2)Oc2ccccc21 | 5.05
O=C(c1ccccc1)c1ccc(OC[C@H](O)CN2CCN(c3ccc(F)cc3)CC2)cc1 | 6.01
Cc1ccc(-c2n[nH]c3c2[C@@H](c2ccc(N(C)C)cc2)C(C#N)=C(N)O3)cc1 | 5.51
c1ccc(CC[C@H]2c3ccccc3O[C@H]2CN2CCCCC2)cc1 | 5.79
O=C(c1ccccc1)c1ccccc1OC[C@H](O)CN1CCC(O)(c2ccccc2)CC1 | 6.51
O=C1CCc2cccc(OC[C@H](O)CN3CCCCC3)c21 | 5.01
CCC(=O)c1ccc(OC[C@H](O)CN(C(C)C)C(C)C)cc1 | 5.11
CCN(CCO)[C@@H]1c2ccccc2N(C(=O)c2ccc(C)cc2)[C@H](C)[C@@H]1O | 5.04
CC(=O)c1ccc(OC[C@H](O)CN2CCOCC2)cc1 | 3.52
Cc1cccc(N2CCN(C[C@@H](O)COc3ccc(C(=O)c4ccccc4)cc3)CC2)c1C | 6.18
CC(C)[C@@H](C(=O)OC(C)(C)C)N(C)[C@H]1c2cc(C#N)ccc2OC(C)(C)[C@@H]1O | 5.87
Cc1c(C(=O)c2ccccc2)c(=O)n(-c2ccccc2)n1C[C@H](O)CN(C(C)C)C(C)C | 4.80
CC(=O)c1cc(C)ccc1OC[C@H](O)CN1CCN(c2ccc(F)cc2)CC1 | 5.44

SMILES | pEC50
CC1(C)Oc2ccc(C#N)cc2C(NCc2ccccc2)C1O (stereo not drawn) | 4.12
CC[C@H](C)c1ccc(N2C(=O)c3ccccc3N[C@H]2c2ccc(OC)cc2)cc1 | 6.12
COc1ccccc1N1CCN([C@H]2c3ccccc3N(C(=O)c3ccc(C)cc3)[C@H](C)[C@@H]2O)CC1 | 5.45
CCC(=O)c1ccc(OC[C@H](O)CN2CCN(c3ccccc3C)CC2)cc1 | 6.06
Cc1c(C(=O)c2ccccc2)c(=O)n(-c2ccccc2)n1C[C@H](O)CNC(C)C | 4.08
CC(=O)c1cc(C)ccc1OC[C@H](O)CN1CCN(C(=O)Nc2ccc(C)cc2)CC1 | 5.13
CC1(C)Oc2ccc(C#N)cc2[C@@H]2NC(Cc3ccccc3)C(=O)O[C@H]21 (stereo partly drawn) | 3.59
CCN(CC)CCC[C@H](C)N[C@@H]1c2ccccc2N(C(=O)c2ccc(C)cc2)[C@H](C)[C@@H]1O | 5.57
CC(C)[C@H](N[C@@H]1c2cc(C#N)ccc2OC(C)(C)[C@H]1O)C(=O)O | 5.32
O=C(c1ccccc1)c1cccc(OC[C@H](O)CN2CCCCC2)c1 | 5.45
CC(=O)c1cccc(OC[C@H](O)CN2CCCCC2)c1 | 5.04
CC(C)N(C[C@@H](O)COc1ccc(O)cc1C(=O)CCc1ccccc1)C(C)C | 5.98
CCC(=O)c1ccc(OC[C@H](O)CN2CCCCC2)cc1 | 4.48
CC(=O)c1ccc(OC[C@H](O)CN2CCN(c3ccccc3C)CC2)cc1 | 5.81
Cc1cccc(N2CCN(C[C@H]3CC(=O)c4ccccc4O3)CC2)c1C | 5.69
COc1ccc(N2CCN(C[C@@H](O)COc3cccc4c3C(=O)[C@@H](Cc3ccccc3)C4)CC2)cc1 | 6.41
CCCNC[C@@H](O)COc1ccc(OCc2ccccc2)cc1C(=O)CCc1ccccc1 | 6.96
CCCCNC[C@@H](O)Cn1c(C)c(C(=O)CCc2ccccc2)c(=O)n1-c1ccccc1 | 5.57
O=C([C@@H]1Oc2ccccc2[C@@H]1CCc1ccccc1)N1CCCCC1 | 5.18
CCOc1ccc(N2C(=O)c3ccccc3N[C@H]2c2ccc(N(C)C)cc2)cc1 | 4.60
CC(C)[C@@H](CCl)N(C)[C@H]1c2cc(C#N)ccc2OC(C)(C)[C@@H]1O | 4.35
CC(=O)c1cccc(OC[C@H](O)CN2CCN(c3ccccc3C)CC2)c1 | 6.27
CCC(=O)c1ccc(OC[C@H](O)CN2CCN(c3cccc(C)c3C)CC2)cc1 | 5.85
CC(C)[C@@H]1C(=O)O[C@@H]2[C@H](c3cc(C#N)ccc3OC2(C)C)N1C | 4.56
COc1ccc([C@@H]2Nc3ccccc3C(=O)N2c2ccc(Oc3ccccc3)cc2)cc1 | 6.00
Cc1ccc(C(=O)N2c3ccccc3[C@H](N3CCN(Cc4ccccc4)CC3)[C@@H](O)[C@H]2C)cc1 | 6.37
CCC/N=C(/CCc1ccccc1)[C@H]1C(=O)N(c2ccccc2)N=C1C | 5.43

— ChEMBL document CHEMBL2449286, “Structure-activity data for a series of P-glycoprotein inhibitors (Supplementary Data to CHEMBL1142990)”
